# Test results reported in US20070004660A1, “Synergistic Modulation of Flt3 Kinase Using Alkylquinolines and Alkylquinazolines” (priority 2005, published 2007).
# Biological target: T1, wild-type FLT3 receptor (Homo sapiens, UniProt P36888)
# T1 construct: host or cells: Baf3 (murine B cell lymphoma line), stably transfected
# T1 sequence (P36888 27-993): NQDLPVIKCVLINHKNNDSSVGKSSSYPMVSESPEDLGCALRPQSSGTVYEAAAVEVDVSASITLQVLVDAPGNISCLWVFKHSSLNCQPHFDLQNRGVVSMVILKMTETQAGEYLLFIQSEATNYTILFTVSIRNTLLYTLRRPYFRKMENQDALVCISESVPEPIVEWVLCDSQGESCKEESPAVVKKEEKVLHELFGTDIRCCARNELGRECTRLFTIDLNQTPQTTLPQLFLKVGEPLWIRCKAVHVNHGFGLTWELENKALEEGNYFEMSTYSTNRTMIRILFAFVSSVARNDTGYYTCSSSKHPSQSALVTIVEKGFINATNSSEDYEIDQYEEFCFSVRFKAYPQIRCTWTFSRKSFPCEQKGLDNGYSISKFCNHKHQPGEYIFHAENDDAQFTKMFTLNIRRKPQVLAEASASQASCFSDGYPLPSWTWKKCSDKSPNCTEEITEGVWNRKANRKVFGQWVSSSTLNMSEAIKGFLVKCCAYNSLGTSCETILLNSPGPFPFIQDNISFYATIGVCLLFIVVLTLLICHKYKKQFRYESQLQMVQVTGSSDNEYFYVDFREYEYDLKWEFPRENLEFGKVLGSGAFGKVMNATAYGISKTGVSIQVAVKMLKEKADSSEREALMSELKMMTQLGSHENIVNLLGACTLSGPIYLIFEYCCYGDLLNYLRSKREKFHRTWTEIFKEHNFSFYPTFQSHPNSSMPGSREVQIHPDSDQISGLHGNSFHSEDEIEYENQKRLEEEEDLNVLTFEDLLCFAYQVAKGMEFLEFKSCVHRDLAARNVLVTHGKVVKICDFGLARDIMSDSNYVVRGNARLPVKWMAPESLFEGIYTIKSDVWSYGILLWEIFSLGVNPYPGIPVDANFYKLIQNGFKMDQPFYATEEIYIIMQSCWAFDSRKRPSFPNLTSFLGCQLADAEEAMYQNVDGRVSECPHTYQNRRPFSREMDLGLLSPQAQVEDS
# Assay: Cell-based FLT3 receptor ELISA (FLT ligand-induced phosphorylation in Baf3 FLT3 cells)
# Conditions: 100 ng/mL Flt ligand, uncertainty ±20%
# How it was run: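 Receptor phosphotyrosine measured by sandwich ELISA (anti-FLT3 capture, HRP anti-pTyr, luminescence) in FLT3-transfected murine Baf3 cells given 1 h compound pretreatment and 10 min 100 ng/mL FLT ligand after overnight low-serum starvation; triplicates, IC50 from nonlinear regression.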
row,IC50 [nM],Compound
1,104,"COc1cc2ncnc(C3CCN(C(=O)Nc4ccc(N5CCOCC5)cc4)CC3)c2cc1OC [Example 18, 4-(6,7-Dimethoxy-quinazolin-4-yl)-piperidine-1-carboxylic acid (4-morpholin-4-yl-phenyl)-amide]"
2,2,"COc1cc2ncnc(C3CCN(C(=O)Nc4ccc(C5CCCCC5)cc4)CC3)c2cc1OC [Example 21, 4-(6,7-Dimethoxy-quinazolin-4-yl)-piperidine-1-carboxylic acid (4-cyclohexyl-phenyl)-amide]"
3,5100,"COc1cc2ncnc(C3CCN(C(=O)Nc4ccc(CO)cc4)CC3)c2cc1OC [Example 22, 4-(6,7-Dimethoxy-quinazolin-4-yl)-piperidine-1-carboxylic acid (4-hydroxymethyl-phenyl)-amide]"
4,2600,"COc1cc2ncnc(C3CCN(C(=O)Nc4ccc5ncsc5c4)CC3)c2cc1OC [Example 24, 4-(6,7-Dimethoxy-quinazolin-4-yl)-piperidine-1-carboxylic acid benzothiazol-6-ylamide]"
5,27,"O=C(Nc1ccc(N2CCOCC2)cc1)N1CCC(c2ncnc3cc(N4CCC[C@@H]4CO)ccc23)CC1 [Example 132, (R)-4-[7-(2-Hydroxymethyl-pyrrolidin-1-yl)-quinazolin-4-yl]-piperidine-1-carboxylic acid (4-morpholin-4-yl-phenyl)-amide]"
6,26,"O=C(Nc1ccc(N2CCOCC2)cc1)N1CCC(c2ncnc3cc(OCCCN4CCOCC4)ccc23)CC1 [Example 133, 4-[7-(3-Morpholin-4-yl-propoxy)-quinazolin-4-yl]-piperidine-1-carboxylic acid (4-morpholin-4-yl-phenyl)-amide]"

# Continued, compound first:
row,Compound,IC50 [nM]
1,"COc1cc2ncnc(C3CCN(C(=O)Nc4ccc(N5CCCCC5)cc4)CC3)c2cc1OC [Example 19, 4-(6,7-Dimethoxy-quinazolin-4-yl)-piperidine-1-carboxylic acid (4-piperidin-1-yl-phenyl)-amide]",17
2,"COc1cc2ncnc(C3CCN(C(=O)Nc4ccc5[nH]ccc5c4)CC3)c2cc1OC [Example 23, 4-(6,7-Dimethoxy-quinazolin-4-yl)-piperidine-1-carboxylic acid (1H-indol-5-yl)-amide]",900
3,"O=C(Nc1ccc(N2CCOCC2)cc1)N1CCC(c2ncnc3cc(N4CC[C@H](O)C4)ccc23)CC1 [Example 128, 4-[7-(3-Hydroxy-pyrrolidin-1-yl)-quinazolin-4-yl]-piperidine-1-carboxylic acid (4-morpholin-4-yl-phenyl)-amide]",58
4,"CC(C)Oc1ccc(NC(=O)N2CCC(c3ncnc4ccc(N5CCN(C)CC5)cc34)CC2)cc1 [Example 131, 4-[6-(4-Methyl-piperazin-1-yl)-quinazolin-4-yl]-piperidine-1-carboxylic acid (4-isopropoxy-phenyl)-amide]",226
5,"CCN(CC)CCCOc1ccc2c(C3CCN(C(=O)Nc4ccc(N5CCOCC5)cc4)CC3)ncnc2c1 [Example 134, 4-[7-(3-Diethylamino-propoxy)-quinazolin-4-yl]-piperidine-1-carboxylic acid (4-morpholin-4-yl-phenyl)-amide]",31
6,"CN1CCN(c2ccc3c(C4CCN(C(=O)Nc5ccc(N6CCOCC6)cc5)CC4)ncnc3c2)CC1 [Example 135, 4-[7-(4-Methyl-piperazin-1-yl)-quinazolin-4-yl]-piperidine-1-carboxylic acid (4-morpholin-4-yl-phenyl)-amide]",27
7,"CCN1CCN(c2ccc3c(C4CCN(C(=O)Nc5ccc(N6CCOCC6)cc5)CC4)ncnc3c2)CC1 [Example 136, 4-[7-(4-Ethyl-piperazin-1-yl)-quinazolin-4-yl]-piperidine-1-carboxylic acid (4-morpholin-4-yl-phenyl)-amide]",36
8,"O=C(Nc1ccc(N2CCOCC2)cc1)N1CCC(c2ncnc3cc(N4CCN(CCO)CC4)ccc23)CC1 [Example 137, 4-{7-[4-(2-Hydroxy-ethyl)-piperazin-1-yl]-quinazolin-4-yl}-piperidine-1-carboxylic acid (4-morpholin-4-yl-phenyl)-amide]",41
